From patent US12576061B2, “Agent for inducing regression of triglyceride deposit atherosclerosis” (OSAKA UNIVERSITY, priority 2020, dated 2026)
Entries after “also recorded” stand apart in the source; their conditions may differ.

Legend:
[1] = test system: dermal fibroblasts derived from a diabetic patient; assay: Intracellular triglyceride content of dermal fibroblasts cultured with fatty acids; assay type: cell-based, human; settings: 2 days of culture; for potency for reducing triglyceride compared with other fatty acid: Example 4-2, 125 μM and 500 μM, FIG. 7
Description: A portion of skin tissue was sampled from a diabetic patient after the patient's consent. This sample skin tissue was subjected to primary culture (culture medium: DMEM/10% FBS) by a tissue fragment culture method (Explant method) and subsequent successive passages, and then developed into a cell line. The dermal fibroblasts derived from the patient were used to examine the effect of various fatty acids on intracellular triglyceride content. The intracellular triglyceride content of the dermal fibroblasts derived from the diabetic patient was about 5 times higher than the average intracellular triglyceride content of dermal fibroblasts derived from three healthy subjects. The long-chain fatty acids used were palmitic acid (C16:0), oleic acid (C18:1), linoleic acid ([…]), arachidonic acid (C20:4), and […] (C20:5). The medium-chain fatty acids used were heptanoic acid (C7:0) and capric acid (C10:0). These different fatty acids were separately added at 50 μM and 500 μM to the media of dermal fibroblasts from the diabetic patient described above. After 2 days of culture, the cells were collected, and the intracellular triglyceride content was measured using a triglyceride quantification kit (BioVision). The medium-chain fatty acids used were capric acid (C10:0), caprylic acid (C8:0), and 8-methylnonanoic acid ([…]). These different fatty acids were separately added at 125 μM and 500 μM to the media of dermal fibroblasts from the diabetic patient described above. After 2 days of culture, the cells were collected, and the intracellular triglyceride content was measured using a triglyceride quantification kit (BioVision). For controls, 500 μM palmitic acid (C16:0) or no fatty acid was added to the medium of the same dermal fibroblasts as those used above.

[2] = test system: TG deposit atherosclerosis in the coronary artery; assay: Coronary CT angiography, color-coded images of lipid accumulation in the coronary artery; assay type: in vivo, human
Method: Before and 50 days after the start of the tricaprin/trisdecanoin diet, a standard coronary CT angiography was performed to generate three-dimensional (3D) DICOM images of the left anterior descending coronary artery. The images were resampled to a voxel size of 0.1 mm^3 and color-coded according to CT values of individual voxels. Smoothing was applied between adjacent voxels. Colors were coded as follows: light gray (yellow in the color image): −25 HU to 0 HU (massive lipid accumulation); medium gray (orange in the color image): 0 HU to 40 HU (moderate lipid accumulation); dark gray (green in the color image): 40 HU to 125 HU (no lipid accumulation).
(§1) Before and 4 years after the start of the tricaprin/trisdecanoin diet, a standard coronary CT angiography was performed, and the images of the inside of the left anterior descending coronary artery were color-coded in the same manner as described in Example 1. The images of the designated segment of the coronary artery were analyzed with a 3D image analysis system SYNAPSE VINCENT v5.5 (FUJIFILM Corporation) to examine changes in lipid accumulation and vascular lumen size in the designated segment. In the image analysis, the area with CT values ranging −25 to 40 HU was regarded as lipid accumulation, and the area with CT values ranging 215 to 700 HU was regarded as the vascular lumen.
(§2) Angiograms of the coronary artery were taken before and 3 months after the start of the tricaprin/trisdecanoin diet. A standard coronary CT angiography was also performed, and the images were color-coded in the same manner as described in Example 1. The images of the designated segment of the coronary artery were subjected to 3D image analysis in the same manner as described in Example 2 to examine changes in lipid accumulation and vascular lumen size in the designated segment.

[3] = test system: TG deposit atherosclerosis in the coronary artery; assay: 3D image analysis (SYNAPSE VINCENT) of lipid accumulation and vascular lumen size in designated coronary segment; assay type: in vivo, human
Method: as §1, §2

[4] = test system: coronary arteries of patient with idiopathic TGCV; assay: Angiograms of the coronary artery, blood flow; assay type: in vivo, human; settings: Example 3 patient, refractory angina
Method: as §2

[5] = Serum lipid levels before and after the start of the tricaprin/trisdecanoin diet; assay type: in vivo, human; settings: for LDL cholesterol, serum / HDL cholesterol, serum / TG (triglyceride), serum: After treatment
Method: (§3) The mean values of the triglyceride, LDL cholesterol, and HDL cholesterol levels measured before the start of the tricaprin/trisdecanoin diet were compared to those measured for 4 years after the start of the tricaprin/trisdecanoin diet. […] The LDL cholesterol level was under control within the normal range (60 to 119 mg/dL).
as §3, with “3 months” for “4 years”, “at a level lower than” for “within”

[6] = test system: recurrent cerebral infarction; assay: Clinical course of the patient during the tricaprin/trisdecanoin diet; assay type: in vivo, human; settings: Example 2 patient with history of cerebral infarction; 1.5 g/day for 4 years
Description: A person who had suffered from refractory angina for years. The patient had diabetes with a history of middle cerebral artery occlusion and cerebral infarction. The patient presented to hospital with a chief complaint of rest and nocturnal angina. […] Their chest pain was refractory to existing medications (sublingual nitroglycerin, calcium channel blockers, β-blockers, antiplatelet agents, and statins) and rather worsened. […] The patient received tricaprin/trisdecanoin three times per day after meals in a total daily dose of 1.5 g for 4 years.

PCSK9 = molecular target: T1, PCSK9 (Homo sapiens, UniProt Q8NBP7); settings: evolocumab group (484 patients) on statin treatment, cited from earlier work
T1 construct: randomly assigned to receive evolocumab (monoclonal antibody against PCSK9); host or cells: patients (in vivo, endogenous circulating PCSK9)
T1 sequence (Q8NBP7 153-692): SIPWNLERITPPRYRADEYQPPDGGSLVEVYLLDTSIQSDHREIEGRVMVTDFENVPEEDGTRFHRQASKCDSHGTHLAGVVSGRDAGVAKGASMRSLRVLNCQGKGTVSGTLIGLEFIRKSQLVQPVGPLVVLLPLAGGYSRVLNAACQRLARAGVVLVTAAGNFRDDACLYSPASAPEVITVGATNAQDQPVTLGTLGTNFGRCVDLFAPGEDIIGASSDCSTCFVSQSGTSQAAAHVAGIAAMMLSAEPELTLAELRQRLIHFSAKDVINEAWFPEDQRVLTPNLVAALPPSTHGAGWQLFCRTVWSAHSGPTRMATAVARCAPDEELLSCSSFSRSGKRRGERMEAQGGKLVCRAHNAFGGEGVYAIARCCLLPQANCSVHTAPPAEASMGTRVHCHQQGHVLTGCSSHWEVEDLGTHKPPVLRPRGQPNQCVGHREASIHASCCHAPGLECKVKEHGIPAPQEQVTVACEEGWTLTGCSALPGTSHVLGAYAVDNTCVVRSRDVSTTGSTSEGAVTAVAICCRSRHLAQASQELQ

[7] = Example 2 patient, 1.5 g/day for 4 years
[8] = Example 3 patient, 4.5 g/day for 3 months

## CC(C)CCCCCCC(=O)O [8-methylnonanoic acid]
[1]
  potency for reducing triglyceride compared with other fatty acid: more potent medium-chain fatty acids for reducing triglyceride than palmitic acid

## CCCCCCCCCC(=O)O [capric acid]
[1]; Example 4-1, fatty acid added at 50 μM and 500 μM, FIG. 6
  intracellular triglyceride content relative to control cells (100%): reduction in intracellular triglyceride content
[1]
  potency for reducing triglyceride compared with other fatty acid: more potent medium-chain fatty acids for reducing triglyceride than palmitic acid

## CCCCCCCCCC(=O)OCC(COC(=O)CCCCCCCCC)OC(=O)CCCCCCCCC [tricaprin/trisdecanoin]
[2]; Example 1 patient, person with ATGL deficiency, 6 to 9 g/day after meals for 50 days, left anterior descending coronary artery
  TG deposit atherosclerosis in the coronary artery (color-coded CT images): regression of TG deposit atherosclerosis in the coronary artery
[2]; Example 2 patient, refractory angina, diabetes, 1.5 g/day for 4 years, segment 7 to 9 cm from coronary ostium, before diet 90% to 75% diffuse stenosis
  stenosis of the vascular lumen: about 25%
[2]; [7]
  TG deposit atherosclerosis in the coronary artery: regression of TG deposit atherosclerosis in the coronary artery
  characteristic pattern of TG deposit atherosclerosis (lipid deposition protruding from adventitial toward medial side): diminished or disappeared
  diameter of the vascular lumen through which the blood flowed: marked enlargement
[2]; [8]
  TG deposit atherosclerosis in the coronary artery: regression of TG deposit atherosclerosis in the coronary artery
  diameter of the vascular lumen through which the blood flowed: marked enlargement
[3]; % increase vs before diet, Example 2 patient, 1.5 g/day for 4 years, segment designated in FIG. 2, 2.2 cm, CT values 215 to 700 HU
  Vascular lumen: 260% increase
[3]; % increase, Example 3 patient, 4.5 g/day for 3 months, not stented segment Circumflex 7.2 cm
  Vascular lumen: 17% increase
[3]; % increase, Example 3 patient, 4.5 g/day for 3 months, not stented segment LAD 3.7 cm
  Vascular lumen: 48% increase
[3]; % increase, Example 3 patient, 4.5 g/day for 3 months, not stented segment RCA 3.4 cm
  Vascular lumen: 24% increase
[3]; % reduction vs before diet, Example 2 patient, 1.5 g/day for 4 years, segment designated in FIG. 2, 2.2 cm, CT values -25 to 40 HU
  Lipid accumulation: 27% reduction
[3]; % reduction, Example 3 patient, 4.5 g/day for 3 months, not stented segment Circumflex 7.2 cm
  Lipid accumulation: 50% reduction
[3]; % reduction, Example 3 patient, 4.5 g/day for 3 months, not stented segment LAD 3.7 cm
  Lipid accumulation: 53% reduction
[3]; % reduction, Example 3 patient, 4.5 g/day for 3 months, not stented segment RCA 3.4 cm
  Lipid accumulation: 14% reduction
[4]; 4.5 g/day for 3 months
  blood flow to the peripheral coronary arteries: clearly improved
[4]; oral 4.5 g/day for 3 months
  blood flow in the coronary arteries as a whole: improvement in coronary blood flow; also recorded: improvement in the blood flow
[5]; Mean ± SD over 3 months, Example 3 patient, 4.5 g/day, on statin, before treatment 52 ± 2.9
  LDL cholesterol, serum: 54 ± 1.8 mg/dL
[5]; Mean ± SD over 3 months, Example 3 patient, 4.5 g/day, before treatment 35 ± 1.0
  HDL cholesterol, serum: 38 ± 1.0 mg/dL
[5]; Mean ± SD over 3 months, Example 3 patient, 4.5 g/day, before treatment 78 ± 2.1
  TG (triglyceride), serum: 75 ± 11.3 mg/dL
[5]; Mean ± SD over 4 years, Example 2 patient, 1.5 g/day, before treatment 34.5 ± 0.5
  HDL cholesterol, serum: 33 ± 4.0 mg/dL
[5]; Mean ± SD over 4 years, Example 2 patient, 1.5 g/day, before treatment 95 ± 9.0
  LDL cholesterol, serum: 91 ± 13.6 mg/dL
[5]; Mean ± SD over 4 years, Example 2 patient, 1.5 g/day, before treatment 308 ± 7.5
  TG (triglyceride), serum: 334 ± 118.2 mg/dL
[5]; [7]
  effect on the serum lipid levels: no effect on the serum lipid levels
[5]; [8]
  effect on the serum lipid levels: no effect on the serum lipid levels
[6]
  recurrent cerebral infarction: free from recurrent cerebral infarction

B1: evolocumab: monoclonal antibody against PCSK9 (antibody, chains of the INN, looked up, V domains shown)
VH: EVQLVQSGAEVKKPGASVKVSCKASGYTLTSYGISWVRQAPGQGLEWMGWVSFYNGNTNYAQKLQGRGTMTTDPSTSTAYMELRSLRSDDTAVYYCARGYGMDVWGQGTTVTVSS
VL: ESALTQPASVSGSPGQSITISCTGTSSDVGGYNSVSWYQQHPGKAPKLMIYEVSNRPSGVSNRFSGSKSGNTASLTISGLQAEDEADYYCNSYTSTSMVFGGGTKLTVL
PCSK9; 92.6 mg/dL before the start of the trial
  LDL cholesterol level at week 76: 36.6 mg/dL
PCSK9
  LDL cholesterol level at week 76 as % of the level before the start of the trial: about 40%
  percent atheroma volume, reduction at week 76: 0.95%
